The record followed here is patent US20060079453A1, “Hla binding peptides and their uses” (priority 2002, published 2006).

What all share (assay): biochemical
Assay type in all cases: binding

Experiment [1] addresses HLA-B*4403 (Homo sapiens, UniProt P01889, A223V/A65T/A93T/A95T/D201E/D98Y/E176V/E187L/E204Q/E69K/G107R/H137Y/K202T/L105A/L119I/N104T/N87E/Q56L/Q94N/R106L/R155S/R180L/S101N/S121R/S35A/S48T/T118I/V36M/W191S/Y140D/Y91S).
Experiment [2] deals with HLA-B*1801 (Homo sapiens, UniProt P01889, A329T/A93T/A95T/C349S/D201E/D54G/D98Y/E176V/E187T/E204Q/E69T/K202T/Q94N/R155S/R180L/S121R/V306I/Y140S/Y195H/Y33H/Y91S).
Experiment [3] addresses HLA-B*4402 (Homo sapiens, UniProt P01889, A223V/A65T/A93T/A95T/D201E/D98Y/E176V/E187L/E204Q/E69K/G107R/H137Y/K202T/L105A/L119I/N104T/N87E/Q56L/Q94N/R106L/R155S/R180D/S101N/S121R/S35A/S48T/T118I/V36M/W191S/Y140D/Y91S).
The target of experiment [4] is HLA-B*4002 (Homo sapiens, UniProt P01889, A65T/A93T/A95T/D138N/D201E/D98Y/E176V/E204Q/E69K/K202T/N87E/Q56L/Q94N/R180L/S48T/Y33H/Y91S).
Experiment [5] addresses HLA-B*4501 (Homo sapiens, UniProt P01889, A329T/A65T/A93T/A95T/C349S/D138N/D201E/D98Y/E176V/E187L/E204Q/E69K/H137Y/K202T/L119W/N87E/Q56L/Q94N/R155S/R180D/S121R/S35A/S48T/V127L/V306I/V36M/W191S/Y140L/Y33H/Y91S).
For experiment [6], the target named is HLA-B*4001 (Homo sapiens, UniProt P01889, A65T/A93T/A95T/D138N/D98Y/E176V/E69K/N87E/Q56L/Q94N/R180L/S121R/S35A/S48T/T167S/V36M/W171L/Y33H/Y91S).

pIC50: −log10 of the molar value. Like-named read-outs stand apart in the source and are kept apart here. No end group written: not given here.

Take AETLWVTVY: the pIC50 in experiment [1] was 6.66; in experiment [2], 6.70; in experiment [3], 6.30; in experiment [4], 6.70; in experiment [5] it was 6.11.
For the sequence AEGIVTGQY, the pIC50 in experiment [1] (B*4403) is 7.92; in experiment [2] (B*1801) it was 5.14; in experiment [3] (B*4402) it was 6.59; in experiment [6] (B*4001), 5.19; in experiment [5] (B*4501) it was 6.38.
As for AEMGKFKFSY, the pIC50 is 7.55 in experiment [1] (B*4403); 5.82 in experiment [2] (B*1801); 6.84 in experiment [3] (B*4402); 6.21 in experiment [4] (B*4002); 6.55 in experiment [5] (B*4501).
As to AENLKVTVY, the pIC50 in experiment [1] was 6.31; in experiment [2], 6.86; in experiment [3] it was 6.60; in experiment [6], 5.11; in experiment [5] it was 5.02.
As for KEKGGLDGLI, the pIC50 is 5.44 in experiment [1] (B*4403); less than 4.64 in experiment [2] (B*1801); 4.83 in experiment [3] (B*4402); 6.63 in experiment [4] (B*4002); 5.00 in experiment [5] (B*4501).
For the sequence AENLWVTVC, the pIC50 in experiment [1] is 5.64; in experiment [2] it was 3.75; in experiment [3], 5.25; in experiment [4] it was 5.85; in experiment [5] it was 6.84.
Regarding AENTWVTVY, the pIC50 in experiment [1] is 6.78; in experiment [2] it was 6.67; in experiment [3] it was 6.41; in experiment [6] it was 5.84; in experiment [5], 6.35.
In the case of AENLWVTVQ, the pIC50 in experiment [1] was 6.73; in experiment [2], 4.30; in experiment [3] it was 5.91; in experiment [4], 7.07; in experiment [5], 7.00.
As for QEILDLWV, the pIC50 is 5.23 in experiment [1] (B*4403); less than 4.64 in experiment [2] (B*1801); less than 4.09 in experiment [3] (B*4402); 5.77 in experiment [4] (B*4002); 5.26 in experiment [5] (B*4501).
Regarding SEAIYTFQF, the pIC50 was 7.70 in experiment [1] (B*4403); 8.24 in experiment [2] (B*1801); 8.32 in experiment [3] (B*4402); 6.01 in experiment [6] (B*4001); 6.53 in experiment [5] (B*4501).
For KEKGGLDGL, in that order: less than 4.98, less than 4.64, less than 4.09, 7.26 and 5.00.
For the sequence AENLWVNVY, the pIC50 in experiment [1] was 7.12; in experiment [3], 6.80; in experiment [5] it was 6.58.
Consider ATNLWVTVY, for which the pIC50 in experiment [1] (read-out: B*4403) is less than 4.37; in experiment [2] (read-out: B*1801), 4.75; in experiment [6] (read-out: B*4001), 6.31; in experiment [4] (read-out: B*4002) it was less than 3.81; in experiment [5] (read-out: B*4501), less than 4.31.
Take YENLWVTVY: the pIC50 in experiment [1] was 6.43; in experiment [2] it was 7.54; in experiment [3], 6.19; in experiment [4], 6.49; in experiment [5] it was 4.97.
For the sequence GELSYLNV, the pIC50 was 4.62 in experiment [1] (B*4403); less than 4.61 in experiment [2] (B*1801); 4.72 in experiment [3] (B*4402); 7.00 in experiment [4] (B*4002); 6.11 in experiment [5] (B*4501).
In the case of AENLWVTPY, the pIC50 in experiment [1] was 7.36; in experiment [2], 7.39; in experiment [3], 6.90; in experiment [6], 6.56; in experiment [5], 6.91.
For AENLWFTVY, the pIC50 was 7.21 in experiment [1]; 6.44 in experiment [2]; 6.16 in experiment [6]; 6.18 in experiment [4]; 7.05 in experiment [5].
In the case of AENLTVTVY, the pIC50 is 6.68 in experiment [1], 6.49 in experiment [3], 6.16 in experiment [6] and 6.10 in experiment [5].
Turning to AETFYVDGA, the pIC50 was 5.16 in experiment [1] (B*4403); less than 5.17 in experiment [2] (B*1801); less than 4.67 in experiment [3] (B*4402); 4.66 in experiment [6] (B*4001); 7.42 in experiment [5] (B*4501).
Consider GEFGGYGSV, for which the pIC50 in experiment [1] (B*4403) was 6.27; in experiment [3] (B*4402), 5.63; in experiment [4] (B*4002) it was 8.19; in experiment [5] (B*4501) it was 7.40.
With AENLWVTVI, the pIC50 in experiment [1] was 7.06; in experiment [2], 4.95; in experiment [6] it was 7.85; in experiment [4], 8.14; in experiment [5], 7.27.
